Measured values reported in the NIST ThermoML archive (doi:10.1021/acs.jced.6b00680).
Numbers after ± are expanded uncertainties.

Legend:
[1] = an = ratio of the nth substance listed; conditions: 100 kPa, Liquid, Concentric cylinders viscometry
[2] = 101.33 kPa, Liquid, Concentric cylinders viscometry

C[N+](C)(C)CCO.[Cl-] [choline chloride] + OCCO
[1], a2 = 2
Conditions	viscosity [mPa·s]
293.2 K	60.9 ± 6.6
298.2 K	51.4 ± 5.6
303.2 K	44.3 ± 4.8
308.2 K	38.1 ± 4.1
313.2 K	33.5 ± 3.6
318.2 K	29.4 ± 3.2
323.2 K	26.1 ± 2.8
328.2 K	23.3 ± 2.5
333.2 K	21.1 ± 2.3
338.2 K	19.3 ± 2.1
343.2 K	17.6 ± 1.9
348.2 K	16.3 ± 1.8
353.2 K	15.2 ± 1.6

OCC(O)CO [glycerol]
[2]
Conditions	viscosity [mPa·s]
296.5 K	1252 ± 140
302.8 K	673.4 ± 76
315.8 K	260.6 ± 29
323.2 K	148.9 ± 16
332.7 K	97.5 ± 11
343.2 K	51.9 ± 5.6
348.2 K	42.8 ± 4.6
354.2 K	34.9 ± 3.8

NC(N)=O [urea] + C[N+](C)(C)CCO.[Cl-]
[1], a1 = 2
Conditions	viscosity [mPa·s]
293.2 K	1685.8 ± 200
298.2 K	1012.3 ± 120
303.2 K	658.5 ± 74
308.2 K	454.9 ± 51
313.2 K	333.6 ± 37
318.2 K	259.8 ± 29
323.2 K	210.6 ± 23
328.2 K	179.5 ± 20
333.2 K	160.8 ± 18
338.2 K	142.6 ± 16
343.2 K	129 ± 14
348.2 K	115.6 ± 13
353.2 K	106.7 ± 12
